Data on 16 molecules can be found in patent US8039668B2, “Naphthalene-based inhibitors of anti-apoptotic proteins” (Burnham Institute for Medical Research, priority 2008, dated 2011).

Read-outs that look alike come from different tables or passages of the source.

Test [1] has as its target BCL-XL (Homo sapiens, UniProt Q07817). The experiment in a line: 1D 1H-NMR binding assay. The note with it: for 1D-^1H NMR: BCL-XL 25 μM, compound 200 μM; for 1D ^1H-NMR Binding Assay (BCL-XL): Table 9. More on the design: key to 1D-^1H NMR: +++, Very Active; ++, Active; +, Mild; −, Weak. As for the experimental part:
By observing the aliphatic region of the spectra, binding could be readily detected due to chemical shift changes in active site methyl groups of Ile, Leu, Thr, Val or Ala (region between −0.8 and 0.3 ppm). All experiments were performed with a 600 MHz spectrometer Bruker Avance 600 equipped with four rf channels and z-axis pulse-field gradients.

The test system of test [2] is H1299 cell line. Nature of the test: Cell viability, ATP-LITE assay. The following applies: Homo sapiens. It is filed as cell-based, human. As for the experimental part: (§1) The activity of the compounds against human cancer cell lines (PC3ML, H460, H1299, RS11846) were assessed by using the ATP-LITE assay (PerkinElmer). All cells were seeded in either F12 or RPMI1640 medium with 5 mM L-glutamine supplemented with 5% fetal bovine serum (Mediatech Inc.), penicillin and streptomycin (Omega). For maintenance, cells were cultured in 5% FBS. Cells plated into 96 well plates at varying initial densities depending on doubling time. H460 and H1299 plated at 2000 cells/well, A549 and PC3 at 3000 cells/well, and RS118456S at 10,000 cells/well. Compounds were diluted to final concentrations with 0.1% DMSO. Prior to dispensing compounds onto cells, fresh 5% media was placed into wells. Administration of compounds occurred 24 hours after seeding into the fresh media. Cell viability was evaluated using ATP-LITE reagent (PerkinElmer) after 72 hours of treatment. Data were normalized to the DMSO control-treated cells using Prism version 5.01 (Graphpad Software).

Test [3] deals with H460 human lung cell line. The experiment in a line: Cell viability, ATP-LITE assay. The class given is cell-based. The following applies: Homo sapiens. How it is done: as §1
Test [4] concerns PC3ML cells. The experiment in a line: Cell viability, ATP-LITE assay. The following applies: Homo sapiens, PC3-ML, ATP-LITE assay. It is filed as cell-based, human. As for the experimental part:
as §1

The subject of test [5] is human lymphoma RS11846 cell line. Nature of the test: Apoptosis, Annexin V-FITC and propidium iodide assay. The class given is cell-based. The following applies: Homo sapiens.
[6] abbreviates: NCI-H1299, heading: EC50 H1299, Table 3, ATP-LITE assay, read-out: EC50 H1299.
[7] abbreviates: Table 3, heading: EC50 PC3ML, read-out: EC50 PC3ML.
The mark [8] stands for this setting: Table 3, Annexin V-FITC and propidium iodide assay, heading: EC50 RS11846, read-out: EC50 RS11846.
Where [9] appears, read: NCI-H460, heading: EC50 H460, Table 3, ATP-LITE assay, read-out: EC50 H460.
The mark [10] stands for this setting: NCI-H1299, read-out: EC50 H1299.
[11] abbreviates: read-out: EC50 RS11846, Table 3, Annexin V-FITC and propidium iodide assay.

BCL-XL, sequence (Q07817 whole entry): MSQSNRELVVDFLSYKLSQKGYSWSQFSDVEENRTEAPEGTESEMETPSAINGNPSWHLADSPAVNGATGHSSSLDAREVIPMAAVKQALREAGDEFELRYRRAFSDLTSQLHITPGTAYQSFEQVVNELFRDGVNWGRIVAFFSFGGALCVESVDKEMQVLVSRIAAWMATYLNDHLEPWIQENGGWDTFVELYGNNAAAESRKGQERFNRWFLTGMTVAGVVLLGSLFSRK

A word on the EC50: it is the concentration that produces a half-maximal response. For the molecule `Cc1cc2c(C(=O)Nc3ccccc3)c(O)c(O)cc2c(O)c1-c1c(C)cc2c(C(=O)Nc3ccccc3)c(O)c(O)cc2c1O` [Compound 8a, 1,1′,6,6′,7,7′-hexahydroxy-3,3′-dimethyl-N^5,N^5′-diphenyl-2,2′-binaphthyl-5,5′-dicarboxamide], the “1D-^1H NMR” value in test [1] (Table 3) was “+”. Moreover, the concentration for a half-maximal effect (EC50) was 8 µM in test [2] (setting [6]) and 3.5 µM in test [3] (NCI-H460, Table 3, ATP-LITE assay, heading: EC50 H460, read-out: EC50 H460).
Consider `Cc1cc2c(C(=O)NC3CCCC3)c(O)c(O)cc2c(O)c1-c1c(C)cc2c(C(=O)NC3CCCC3)c(O)c(O)cc2c1O` [Compound 8b, N^5,N^5′-dicyclopentyl-1,1′,6,6′,7,7′-hexahydroxy-3,3′-dimethyl-2,2′-binaphthyl-5,5′-dicarboxamide], for which the “1D-^1H NMR” value in test [1] (Table 3) is “+”. Further, the EC50 in test [4] (setting [7]) stood at 12.2 µM; in test [2] (setting [6]), 8 µM; in test [5] (setting [8]) it was 13.7 µM; in test [3] (setting [9]) it was 8.5 µM.
On the same counts, the results for `Cc1cc2c(C(=O)Nc3ccc(Oc4ccccc4)cc3)c(O)c(O)cc2c(O)c1-c1c(C)cc2c(C(=O)Nc3ccc(Oc4ccccc4)cc3)c(O)c(O)cc2c1O` [Compound 8c, 1,1′,6,6′,7,7′-hexahydroxy-3,3′-dimethyl-N^5,N^5′-bis(4-phenoxyphenyl)-2,2′-binaphthyl-5,5′-dicarboxamide] are “+”, 8.5 µM, 17 µM, 10.8 µM and 10.1 µM.
On the same counts, the results for `CCc1cccc(NC(=O)c2c(O)c(O)cc3c(O)c(-c4c(C)cc5c(C(=O)Nc6cccc(CC)c6)c(O)c(O)cc5c4O)c(C)cc23)c1` [Compound 8d, N^5,N^5′-bis(3-ethylphenyl)-1,1′,6,6′,7,7′-hexahydroxy-3,3′-dimethyl-2,2′-binaphthyl-5,5′-dicarboxamide] are “+”, 8.3 µM, 5 µM, 4.7 µM and 4.1 µM.
On the same counts, the results for `Cc1cc2c(C(=O)Nc3cccc(C(F)(F)F)c3)c(O)c(O)cc2c(O)c1-c1c(C)cc2c(C(=O)Nc3cccc(C(F)(F)F)c3)c(O)c(O)cc2c1O` [Compound 8e, 1,1′,6,6′,7,7′-hexahydroxy-3,3′-dimethyl-N^5,N^5′-bis(3-(trifluoromethyl)phenyl)-2,2′-binaphthyl-5,5′-dicarboxamide] are “+”, 12.2 µM, 28.7 µM, 12.6 µM and 16.7 µM.
`CCC(NC(=O)c1c(O)c(O)cc2c(O)c(-c3c(C)cc4c(C(=O)NC(CC)c5ccccc5)c(O)c(O)cc4c3O)c(C)cc12)c1ccccc1` (stereo not drawn) [Compound 8f, 1,1′,6,6′,7,7′-hexahydroxy-3,3′-dimethyl-N^5,N^5′-bis(1-phenylpropyl)-2,2′-binaphthyl-5,5′-dicarboxamide]: the “1D-^1H NMR” value in test [1] (Table 3) is “+++”. The EC50 in test [5] (setting [8]) came to 4.2 µM; in test [3] (setting [9]), 1.5 µM.
Take `Cc1cc2c(C(=O)NCc3ccccc3)c(O)c(O)cc2c(O)c1-c1c(C)cc2c(C(=O)NCc3ccccc3)c(O)c(O)cc2c1O` [Compound 8g, N^5,N^5′-dibenzyl-1,1′,6,6′,7,7′-hexahydroxy-3,3′-dimethyl-2,2′-binaphthyl-5,5′-dicarboxamide]: the “1D-^1H NMR” value in test [1] (Table 3) was “+”. The EC50 in test [4] (read-out: EC50 PC3ML, Table 3) came out at 13.7 µM; in test [2] (setting [10]), 3.6 µM; in test [5] (setting [11]), 9.3 µM; in test [3] (NCI-H460, read-out: EC50 H460) it was 4.6 µM.
Regarding `Cc1cccc(CNC(=O)c2c(O)c(O)cc3c(O)c(-c4c(C)cc5c(C(=O)NCc6cccc(C)c6)c(O)c(O)cc5c4O)c(C)cc23)c1` [Compound 8h, 1,1′,6,6′,7,7′-hexahydroxy-3,3′-dimethyl-N^5,N^5′-bis(3-methylbenzyl)-2,2′-binaphthyl-5,5′-dicarboxamide], the “1D-^1H NMR” value in test [1] (Table 3) is listed as “+++”. The half-maximal effective concentration (EC50) is 10.2 µM in test [4] (Table 3, read-out: EC50 PC3ML); 3.1 µM in test [2] (setting [6]); 4.8 µM in test [5] (setting [8]); 2.9 µM in test [3] (setting [9]).
Turning to `Cc1cc2c(C(=O)NCc3cccc(Cl)c3)c(O)c(O)cc2c(O)c1-c1c(C)cc2c(C(=O)NCc3cccc(Cl)c3)c(O)c(O)cc2c1O` [Compound 8i, N^5,N^5′-bis(3-chlorobenzyl)-1,1′,6,6′,7,7′-hexahydroxy-3,3′-dimethyl-2,2′-binaphthyl-5,5′-dicarboxamide], the “1D-^1H NMR” value in test [1] (Table 3) is reported as “+++”. Moreover, the EC50 was determined as 8.3 µM in test [4] (read-out: EC50 PC3ML, Table 3); 5.2 µM in test [2] (setting [10]); 7.3 µM in test [5] (setting [11]); 3.3 µM in test [3] (NCI-H460, read-out: EC50 H460).
With `Cc1cc2c(C(=O)NCC3CC3)c(O)c(O)cc2c(O)c1-c1c(C)cc2c(C(=O)NCC3CC3)c(O)c(O)cc2c1O` [Compound 8l, N^5,N^5′-bis(cyclopropylmethyl)-1,1′,6,6′,7,7′-hexahydroxy-3,3′-dimethyl-2,2′-binaphthyl-5,5′-dicarboxamide], the “1D-^1H NMR” value in test [1] (Table 3) is reported as “+”. For the same molecule, in test [5] (setting [8]), the EC50 was over 10 µM.
In the case of `Cc1cccc(CCNC(=O)c2c(O)c(O)cc3c(O)c(-c4c(C)cc5c(C(=O)NCCc6cccc(C)c6)c(O)c(O)cc5c4O)c(C)cc23)c1` [Compound 8o, 1,1′,6,6′, 7,7′-hexahydroxy-3,3′-dimethyl-N^5,N^5′-bis(3-methylphenethyl)-2,2′-binaphthyl-5,5′-dicarboxamide], the “1D-^1H NMR” value in test [1] (Table 3) was “+”. The EC50 in test [5] (setting [8]) was determined as 5.6 µM; in test [3] (NCI-H460, Table 3, ATP-LITE assay, read-out: EC50 H460), 0.7 µM.
For `Cc1cc2c(CC(C)C)c(O)c(O)cc2c(O)c1-c1c(C)cc2c(CC(C)C)c(O)c(O)cc2c1O` [Compound 12a, 5,5′-diisobutyl-3,3′-dimethyl-2,2′-binaphthyl-1,1′,6,6′,7,7′-hexaol], the “1D-^1H NMR” value in test [1] (Table 4) is reported as “+”.
On the same count and under the same terms, to `Cc1cc2c(CCC(C)C)c(O)c(O)cc2c(O)c1-c1c(C)cc2c(CCC(C)C)c(O)c(O)cc2c1O` [Compound 12b, 5,5′-diisopentyl-3,3′-dimethyl-2,2′-binaphthyl-1,1′,6,6′,7,7′-hexaol] belongs “+”.
Consider `Cc1cc2c(Cc3ccccc3)c(O)c(O)cc2c(O)c1-c1c(C)cc2c(Cc3ccccc3)c(O)c(O)cc2c1O` [Compound 12d, 5,5′-dibenzyl-3,3′-dimethyl-2,2′-binaphthyl-1,1′,6,6′,7,7′-hexaol], for which the “1D-^1H NMR” value in test [1] (Table 4) is “+”. Further, the concentration for a half-maximal effect (EC50) in test [4] (read-out: EC50 PC3ML) worked out at 8.3 µM; in test [2] (NCI-H1299, ATP-LITE assay, read-out: EC50 H1299), 1.28 µM; in test [5] (Annexin V-FITC and propidium iodide assay, read-out: EC50 RS11846), 3.2 µM; in test [3] (NCI-H460, ATP-LITE assay, read-out: EC50 H460), 1.2 µM.
Turning to `CCC(C)C(=O)c1c(O)c(O)cc2c(O)c(-c3c(C)cc4c(C(=O)C(C)CC)c(O)c(O)cc4c3O)c(C)cc12` (stereo not drawn) [Compound XIX, 1,1′-(1,1′,6,6′,7,7′-hexahydroxy-3,3′-dimethyl-2,2′-binaphthyl-5,5′-diyl)bis(2-methylbutan-1-one)], in test [1], the “1D ^1H-NMR Binding Assay (BCL-XL)” value is on record as “+”. Moreover, in test [5] (Table 9, read-out: RS11846 EC50 (Annexin V- and propidium iodide assay)), the EC50 came to 17.1 µM.
Turning to `CCCCC(=O)c1c(O)c(O)cc2c(O)c(-c3c(C)cc4c(C(=O)CCCC)c(O)c(O)cc4c3O)c(C)cc12` [Compound XX, 1,1′-(1,1′,6,6′,7,7′-hexahydroxy-3,3′-dimethyl-2,2′-binaphthyl-5,5′-diyl)dipentan-1-one], the “1D ^1H-NMR Binding Assay (BCL-XL)” value in test [1] is “+”. In test [5] (read-out: RS11846 EC50 (Annexin V- and propidium iodide assay), Table 9), the EC50 came out at 11.7 µM.
